Data taken from patent US10519111B2, “UV absorbing compounds, compositions comprising same and uses thereof” (CORAL SUNSCREEN PTY LTD, priority 2013, dated 2019).
Blank lines part the entries; values can stand above or below the compound they belong to.

Tests used:
[1] = UV absorption properties (λmax, molar extinction coefficient ε, efficiency E 1%, 1 cm); type: physicochemical
[2] = Critical wavelength (λcrit), approximate in-house measurement; type: physicochemical
Description: As the precise test for critical wavelength was unable to be replicated exactly by the inventors due to the need for specialist equipment and a specific calibration of the spectrophotometer, these values are only approximate to a degree. […] This represents a highly useful result and so, compounds based around this benzoyl substitution pattern shown, are especially preferred.

[3] = Table 7, values in order of the λmax values
[4] = Table 13B, miscellaneous compounds
[5] = Table 13B, values in order of the λmax values
[6] = Table 13B, values in order of the λmax values, in M-1 cm-1
[7] = Table 3, compounds from isocyanates or isothiocyanates
[8] = Table 4, N-aryl enamines with isocyanates
[9] = Table 5, acylation of N-t-Bu enamine
[10] = Table 5, values in order of the λmax values
[11] = Table 5, values in order of the λmax values, in M-1 cm-1

SMILES: CC(C)CN1C=C(C(=O)/C=C/c2ccccc2)C(C)(C)CC1 [drawing 111]
λmax ([1]; Table 7, unsaturated compounds): 360 nm
E (1%, 1 cm) [1, 3]: 533
ε [1, 3]: 16000 M⁻¹ cm⁻¹
λcrit ([2]; Table 7): 383 nm

SMILES: CC1(C)CCN(C(C)(C)C)C=C1C(=O)Nc1ccc(Cc2ccc(NC(=O)C3=CN(C(C)(C)C)CCC3(C)C)cc2)cc1 [drawing 63]
Ε (1%, 1 cm) ([1]; Table 3): 1105
λmax [1, 7]: 310 nm
ε ([1]; Table 3, in M-1 cm-1): 64589
λcrit ([2]; Table 3): 328 nm

SMILES: CC1(C)CCN(C(C)(C)C)C=C1C(=O)NCCCCCCNC(=O)C1=CN(C(C)(C)C)CCC1(C)C [drawing 59]
Ε (1%, 1 cm) ([1]; Table 3): 619
λmax [1, 7]: 289 nm
ε ([1]; Table 3, in M-1 cm-1): 31072
λcrit ([2]; Table 3): 314 nm

SMILES: C=CC(=O)C1=CN(CC(C)C)CCC1(C)C [drawing 112]
λmax ([1]; Table 7, unsaturated compounds): 330 nm
E (1%, 1 cm) [1, 3]: 915
ε [1, 3]: 20500 M⁻¹ cm⁻¹
λcrit ([2]; Table 7): 363 nm

SMILES: Cc1cc(-c2ccc(N3C=C(C(=O)C(F)(F)F)C(C)(C)CC3)c(C)c2)ccc1N1C=C(C(=O)C(F)(F)F)C(C)(C)CC1
λmax [1, 4]: 331 nm
E (1%, 1 cm) [1, 5]: 1207
ε [1, 6]: 71432
λcrit ([2]; Table 13B): 354 nm

SMILES: CCC(=O)C1=CN(c2ccc(-c3ccc(N4C=C(C(=O)CC)C(C)(C)CC4)c(C)c3)cc2C)CCC1(C)C
λmax [1, 4]: 328 nm
E (1%, 1 cm) [1, 5]: 1234
ε [1, 6]: 63191
λcrit ([2]; Table 13B): 349 nm

SMILES: Cc1cc(/C=C/C(=O)C2=CN(C(C)(C)C)CCC2(C)C)c(C)cc1/C=C/C(=O)C1=CN(C(C)(C)C)CCC1(C)C
λmax [1, 4]: 385 nm
E (1%, 1 cm) [1, 5]: 591
ε [1, 6]: 32159
λcrit ([2]; Table 13B): 390 nm

SMILES: CC1(C)CCN(C(C)(C)C)C=C1C(=O)c1ccc(N2CCN(c3ccc(C(=O)C4=CN(C(C)(C)C)CCC4(C)C)cc3)CC2)cc1
λmax [1, 4]: 323 nm
E (1%, 1 cm) [1, 5]: 830
ε [1, 6]: 51851
λcrit ([2]; Table 13B): 356 nm

SMILES: C=C/C=C/C(=O)C1=CN(CC(C)C)CCC1(C)C [drawing 117]
λmax ([1]; Table 7, unsaturated compounds): 352 nm
E (1%, 1 cm) [1, 3]: 730
ε [1, 3]: 18000 M⁻¹ cm⁻¹
λcrit ([2]; Table 7): 381 nm

SMILES: C=CC(=O)C1=CN(c2ccc(C)cc2)CCC1(C)C
λmax [1, 4]: 348 nm
E (1%, 1 cm) [1, 5]: 1045
ε [1, 6]: 26657
λcrit ([2]; Table 13B): 377 nm

SMILES: CCCCNc1ccc(C(=O)C2=CN(C(C)(C)C)CCC2(C)C)cc1
λmax [1, 4]: 316 nm
E (1%, 1 cm) [1, 5]: 626
ε [1, 6]: 21545
λcrit ([2]; Table 13B): 360 nm

SMILES: CCC(=O)C1=CN(c2ccc(N3C=C(C(=O)CC)C(C)(C)CC3)cc2)CCC1(C)C
λmax [1, 4]: 357 nm
E (1%, 1 cm) [1, 5]: 1290
ε [1, 6]: 52638
λcrit ([2]; Table 13B): 377 nm

SMILES: CCCCCCCC(=O)C1=CN(c2ccc(N(C)C)cc2)CCC1(C)C [drawing 134]
E (1%, 1 cm) ([1]; Table 8b): 785
λmax ([1]; Table 8b, N-phenyl compounds): 338 nm
ε ([1]; Table 8b, in M-1 cm-1): 28040
λcrit ([2]; Table 8b): 371 nm

SMILES: CCCCCCC(=O)C1=CN(c2ccc(N3C=C(C(=O)CC(C)CCC=C(C)C)C(C)(C)CC3)cc2)CCC1(C)C (stereo not shown)
λmax [1, 4]: 358 nm
E (1%, 1 cm) [1, 5]: 934
ε [1, 6]: 52353
λcrit ([2]; Table 13B): 378 nm

SMILES: CC(C)=CCCC(C)CC(=O)C1=CN(c2ccc(N3C=C(C(=O)CC(C)CCC=C(C)C)C(C)(C)CC3)cc2)CCC1(C)C (stereo not shown) [drawing 212]
λmax [1, 4]: 359 nm
E (1%, 1 cm) [1, 5]: 690
ε [1, 6]: 41400
λcrit ([2]; Table 13B): 379 nm

SMILES: Cc1cc(N2C=CC(C)(C)C=C2)n(C)n1 [drawing 152]
E (1%, 1 cm) ([1]; Table 10): 560
λmax ([1]; Table 10, bis and mono enamine compounds): 253 nm
ε ([1]; Table 10, in M-1 cm-1): 11371
λcrit ([2]; Table 10): 350 nm

SMILES: COC(=O)c1cc(Br)ccc1/C=C/C(=O)C1=CN(C(C)(C)C)CCC1(C)C
λmax [1, 4]: 362 nm
E (1%, 1 cm) [1, 5]: 411
ε [1, 6]: 13489
λcrit ([2]; Table 13B): 386 nm

SMILES: CC1(C)CCN(C(C)(C)C)C=C1C(=O)C1=CN(C(C)(C)C)CCC1(C)C [drawing 73]
λmax [1, 9]: 305 nm
Ε (1%, 1 cm) [1, 10]: 456
ε [1, 11]: 16425
shoulder in the λmax column ([1]; Tables 5, 10, 13B): 330 nm
λcrit ([2]; Table 5): 351 nm

SMILES: CN(C)c1ccc(C(=O)C2=CN(C(C)(C)C)CCC2(C)C)cc1 [drawing 95]
E (1%, 1 cm) ([1]; Table 6B): 793
λmax ([1]; Table 6B, N-tert-butyl compounds): 333 nm
ε ([1]; Table 6B, in M-1 cm-1): 24966
λcrit ([2]; Table 6B): 361 nm

SMILES: CC1(C)CCN(c2ccc(N3C=C(C(=O)CC4CCCCC4)C(C)(C)CC3)cc2)C=C1C(=O)CC1CCCCC1
λmax [1, 4]: 360 nm
E (1%, 1 cm) [1, 5]: 1030
ε [1, 6]: 56032
λcrit ([2]; Table 13B): 379 nm

Other lines, results leading:

E (1%, 1 cm) ([1]; Table 8a): 571
ε ([1]; Table 8a): 19350 M⁻¹ cm⁻¹
λmax ([1]; Table 8a, N-phenyl compounds): 341 nm
λcrit ([2]; Table 8a): 369 nm
SMILES: COc1ccc(N2C=C(C(=O)c3ccc(F)cc3)C(C)(C)CC2)cc1 [drawing 129]

E (1%, 1 cm) ([1]; Table 8a): 862
ε ([1]; Table 8a): 23500 M⁻¹ cm⁻¹
λmax ([1]; Table 8a, N-phenyl compounds): 328 nm
λcrit ([2]; Table 8a): 350 nm
SMILES: CCC(=O)C1=CN(c2ccc(OC)cc2)CCC1(C)C [drawing 127]

λmax [1, 4]: 312 nm
E (1%, 1 cm) [1, 5]: 354
ε [1, 6]: 22166
λcrit ([2]; Table 13B): 357 nm
SMILES: CC1(C)CCN(C(C)(C)C)C=C1C(=O)N(CCCCN(C(=O)C1=CN(C(C)(C)C)CCC1(C)C)c1ccccc1)c1ccccc1

λmax [1, 4]: 314 nm
E (1%, 1 cm) [1, 5]: 391
ε [1, 6]: 26421
λcrit ([2]; Table 13B): 365 nm
SMILES: CC1(C)CCN(C(C)(C)C)C=C1C(=O)N(Cc1ccc(CN(C(=O)C2=CN(C(C)(C)C)CCC2(C)C)c2ccccc2)cc1)c1ccccc1

E (1%, 1 cm) ([1]; Table 8b): 928
λmax ([1]; Table 8b, N-phenyl compounds): 328 nm
ε ([1]; Table 8b, in M-1 cm-1): 52737
λcrit ([2]; Table 8b): 349 nm
SMILES: Cc1ccc(N2C=C(C(=O)CCCCCCCCC(=O)C3=CN(c4ccc(C)cc4)CCC3(C)C)C(C)(C)CC2)cc1 [drawing 131]

Ε (1%, 1 cm) ([1]; Table 4): 954
λmax [1, 8]: 314 nm
ε ([1]; Table 4, in M-1 cm-1): 51743
λcrit ([2]; Table 4): 340 nm
SMILES: Cc1ccc(N2C=C(C(=O)Nc3ccc(C)c(NC(=O)C4=CN(C(C)(C)C)CCC4(C)C)c3)C(C)(C)CC2)cc1 [drawing 67]

λmax [1, 9]: 313 nm
Ε (1%, 1 cm) [1, 10]: 869
ε [1, 11]: 26154
λcrit ([2]; Table 5): 329 nm
SMILES: CC1(C)CCN(C(C)(C)C)C=C1C(=O)COc1ccccc1 [drawing 74]

E (1%, 1 cm) ([1]; Table 8a): 629
ε ([1]; Table 8a): 23300 M⁻¹ cm⁻¹
λmax ([1]; Table 8a, N-phenyl compounds): 338 nm
λcrit ([2]; Table 8a): 366 nm
SMILES: CC1(C)CCN(c2ccccc2)C=C1C(=O)c1ccc(Br)cc1 [drawing 124]

E (1%, 1 cm) ([1]; Table 8b): 1347
λmax ([1]; Table 8b, N-phenyl compounds): 327 nm
ε ([1]; Table 8b, in M-1 cm-1): 34608
λcrit ([2]; Table 8b): 348 nm
SMILES: CCC(=O)C1=CN(c2ccc(C)cc2)CCC1(C)C [drawing 135]

Ε (1%, 1 cm) ([1]; Table 4): 1054
λmax [1, 8]: 331 nm
ε ([1]; Table 4, in M-1 cm-1): 68095
λcrit ([2]; Table 4): 354 nm
SMILES: CC1(C)CCN(c2ccc(C(C)(C)C)cc2)C=C1C(=O)Nc1ccc(NC(=O)C2=CN(c3ccc(C(C)(C)C)cc3)CCC2(C)C)cc1 [drawing 68]

E (1%, 1 cm) ([1]; Table 8a): 947
ε ([1]; Table 8a): 23000 M⁻¹ cm⁻¹
λmax ([1]; Table 8a, N-phenyl compounds): 321 nm
λcrit ([2]; Table 8a): 349 nm
SMILES: CCC(=O)C1=CN(c2ccccc2)CCC1(C)C [drawing 122]

E (1%, 1 cm) ([1]; Table 11): 105
λmax ([1]; Table 11, compounds from mixed anhydrides): 407 nm
ε ([1]; Table 11, in M-1 cm-1): 6635
λcrit ([2]; Table 11): 387 nm
SMILES: CC1(C)CCN(c2ccc(C(C)(C)C)cc2)C=C1C(OC(=O)C1c2ccccc2-c2ccccc21)=C1c2ccccc2-c2ccccc21 [drawing 159]

λmax [1, 4]: 325 nm
E (1%, 1 cm) [1, 5]: 608
ε [1, 6]: 42215
λcrit ([2]; Table 13B): 346 nm
SMILES: Cc1ccc(N2C=C(C(=O)N(CCCCN(C(=O)C3=CN(c4ccc(C)cc4)CCC3(C)C)c3ccccc3)c3ccccc3)C(C)(C)CC2)cc1
